# In US20100279941A1, “CD36 MODULATION AND USES THEREOF” (priority 2009, published 2010):
# How the values were obtained:
# [1] = tested on: CD36^+/+ and CD36^−/− mice; assay: Area at risk and infarct size after 30-min LCAL and 48 hours reperfusion (Evans blue/TTC); assay type: in vivo
# Description: Animals. CD36^−/− mice were generated by targeted homologous recombination and backcrossed six times to C57BI/6. Wild-type control littermates (CD36^+/+) were bred from the same cross and were therefore of identical genetic background [Febbraio et al., 2000]. Male mice, aged 23 (±1) weeks, were used for experiments. They were fed standard chow (#5075, Charles Rivers, Saint-Constant, Québec, Canada) and water ad libitum, and housed singly during treatment periods (2 or 10 weeks). Daily pharmacological treatments with 300 μg/kg of EP 80317 or CP1A(IV) or vehicle (0.9% NaCl) were done by subcutaneous (s.c.) injections.
# C57BU6 mice were bred in house. Male mice, aged 23 (±1) weeks, were used for experiments. They were fed standard chow (#5075, Charles Rivers, Saint-Constant, Québec, Canada) and water ad libitum, and housed singly during treatment periods (2 weeks). Daily pharmacological treatments with 300 μg/kg (289 nmol/kg) of EP 80317 or 289 nmol/kg of CP-3(IV), 289 nmol/kg of CP-AP-4 or vehicle (0.9% NaCl) were done by subcutaneous (s.c.) injections.
# (§1) Experimental model of IHD: Transient left coronary artery ligation in vivo. Mice were subjected to a transient LCAL surgery as described before, with minor modifications [Tarnayski et al., 2004]. Mice were injected i.p. with buprenorphine (0.05 mg/kg) and placed in an induction chamber with inhalation anesthesia comprised of 3% isoflurane mixed with 100% oxygen. Mice were intubated with a blunt ended 20-gauge catheter into the trachea via the mouth and mechanically ventilated at a tidal volume of 7 ml/kg at 130 respirations/min with a MiniVent™ mouse ventilator (model 845, Harvard Apparatus, Saint-Laurent, QC, Canada). Anesthesia was maintained with 1.5-2% isoflurane and the animals were kept warm using electrical heating pads during the surgical procedure. The chest was opened by a horizontal incision through the skin and muscle layers at the third intercostal space exposing the left side of the heart. […] Visual blanching distal to the coronary occlusion confirmed myocardial ischaemia. Lidocaine (6 mg/kg) was administered i.p. just following occlusion and prior to reperfusion. After 30 minutes, the PE10 tubing was removed allowing reperfusion. The lungs were reinflated and the chest wound closed layer by layer before extubation. At 6 hours following reperfusion, mice were anesthetized (isoflurane), a blood sample withdrawn, and the heart arrested in diastole by an intravenous injection of 1 M KCl (0.5 mL). Hearts were immediately frozen at −80° C. unless otherwise stated.
# Evaluation of area at risk and infarct size. Two days after reperfusion, the left anterior descending (LAD) coronary artery was re-occluded at the original site and the abdominal aorta was injected retrogradly with 5% Evans blue dye to delineate the AAR by the absence of dark blue staining. The left ventricle, including the interventricular septum, was dissected and cut into transverse 1-mm slices from the apex to the base, using an acrylic matrix (Alto Inc., Hatfield, Pa., USA). The slices were incubated in 1% triphenyltetrazolium chloride solution at 37° C. for 15 min and placed in 10% neutral buffered formalin for 12 hours. Each slice was weighed and photographed on both sides with a digital camera (Nikon, Coolpix™ 4500, Mississauga, Ontario, Canada). The total LV area, AAR and IA were determined for each side of a slice by planimetric analysis using Adobe CS3 Photoshop™ software (Ottawa, ON, Canada), and averaged. The infarct weight was determined as follows: [(A1×WT1)+(A2×WT2)+(A3×WT3)+(A4×WT4) . . . ] where A and WT are the infarct area and weight of the section, respectively. The AAR weight was calculated in a similar manner, but by subtracting the blue (viable) stained zone from the weight. The results are expressed in terms of % IA/AAR, IA/LV and AAR/LV.
# [2] = tested on: CD36^+/+ and CD36^−/− mice; assay: Myocardial oxidative metabolism by μPET with [11C]-acetate; assay type: in vivo; conditions: in words
# Method: as §1, with “After 30 minutes, the PE10 tubing was removed allowing reperfusion. The lungs were reinflated and the chest wound closed layer by layer before extubation. At 6 hours following reperfusion, mice were anesthetized (isoflurane), a blood sample withdrawn, and the heart arrested in diastole by an intravenous injection of 1 M KCl (0.5 mL). Hearts were immediately frozen at −80° C. unless otherwise stated.” left out
# Imaging Data Analysis. For [^11C]-acetate images, dynamic series of 25 frames each were sorted out whereas 27 frames were used for ^18FDG and ^18FTHA imaging, and were reconstructed and analyzed using multicompartmental analysis [Menard et al., 2009] or the Patlak method for FTHA [Patlak and Blasberg, 1985]. […]
# [3] = 2-week treatment 300 μg/kg/d, CD36^+/+ mice, 48 hours reperfusion, p<0.05 vs vehicle
substance,measurement,setting,value
HAIC-2MeDTrp-DLys-Trp-DPhe-Lys-NH2 [EP 80317],reduction of IA/AAR ratio,[1]; [3],31%
same,reduction of IA/LV ratio,[1]; [3],34%
same,area-at-risk,"[1]; CD36^+/+ (C57BL/6) mice, 289 nmol/kg 2 weeks, 48 hours reperfusion, mean (±SE)",51 (±5) %
same,reduction of IA/LV ratios,"[1]; CD36^+/+ (C57BL/6) mice, 289 nmol/kg 2 weeks, 48 hours reperfusion, p<0.001 vs 0.9% NaCl",48%
same,effect on infarct size,"[1]; CD36^−/− mice, 48 hours reperfusion, in words",did not modulate
same,effect on AAR/LV,"[1]; pretreatment 14 days, both CD36^+/+ and CD36^−/− mice, in words",did not modulate
same,myocardial oxidative metabolism (k2),[2]; CD36^+/+ mice pre-treated,reduced
same,myocardial oxidative metabolism (k2),[2]; CD36^−/− mice,unaffected
